Data set [1] in a line: in vivo. The following applies: rat; for AUC / Cmax / Tmax / half-life: in vivo, po, 200 mg/kg; for enhancement of serum Ca level: 200 mg calcium/kg oral. An excerpt: (2) apparatus: Model WFX-1B Spectrophotometer of Atomic Absorption was produced by The Second Optical Apparatus Factory of Beijing, 83114; P-E 3030 Spectrophotometer of Atomic Absorption was produced by Perkin-Elmer Corp.,USA;DT-100 Single-Pan Balance (1/10^4) was produced by Beijing Optical Apparatus Factory; TJ-6 Centrifuge was produced by Beckman, USA; Model MVS-1 Vortex Mixer was produced by Beijing Beide Scientific Apparatus and Materials Co. Ltd.
Twelve hours after the animals had been fasted, 0.5 mL plasma was sampled by excising eyeballs. The plasma was established as the blank group. Then rats were administered agents once in an amount of 20 mL/kg body weight by pouring into the stomach. 0.5 mL plasma was sampled by taking from eyeballs 0.25,0.5,1,1.5,2,3,4,6,8,12 and 16 hours later after the administration. […] The concentration of calcium was measured by a Model WFX-1B Spectrophotometer of Atomic Absorption.

Data set [2] concerns preschool children. Particulars: for bone mineral density: before test 0.379 (threonate), 0.369 (carbonate). As for the experimental part: Seventy 3-6 years old healthy children whose bone mineral density were medium-lower at a central kindergarten in the suburban county of Beijing were selected as subjects, wherein there are 13 boys and 57 girls. All were healthy children who didn't have any metabolic diseases, liver or kidney diseases, bone wounds and abnormal diseases.
Double blind method was employed during the observation. Every person was administered calcium preparation or placebo twice a day in a dosage of 1 bag each time. […] Group IV, established as blank-control group, was administered placebo which didn't contain calcium. All the above oral preparations were provided by Beijing Juneng Asian-Pacific Life Science Research Center.
(1) Bone mineral density was measured before the test and 1.5 months and 3 months later after the administration of Ca supplements.
The bone mineral density of radius in non-preferred hand was measured at the 1/3 point near the farther-end by a Model BMD400 Single-Photon absorptiometry produced conjointly by Institute of Atomic Energy, Ministry of Nuclear Industry, China and Institute of Broadcasting, Beijing, to obtain mean mineral bone density (BMD, g/cm^2). Each point was scanned twice with a scanning speed of 0.5 mm/sec.
All data was analyzed with a SAS statistical software package.

For data set [3], the system named is rickets-babies. Particulars: for craniomalacia, babies with symptom after the beginning of test: before test 3 (threonate), 4 (carbonate); for pillow-bald, babies with symptom after the beginning of test: before test 9 (threonate), 9 (carbonate); for night-sweat, babies with symptom after the beginning of test: before test 12 (threonate), 13 (carbonate). As to the method:
Fourty rickets-babies at the age of 3-10 months were randomly divided into 2 groups of 20 babies each. […] Test group II, namely the calcium carbonate group, were administered orally calcium carbonate twice a day in a dosage of one bag each time. Each bag of the two kind of calcium preparations contained the same amount of element calcium, namely 150 mg element calcium.
(1) Clinic symptoms mainly included the normal symptoms of rickets-babies such as night-sweat, pillow-bald, craniomalacia, etc.

Data set [4] has as its system rickets-babies. As to the method: Fourty rickets-babies at the age of 3-10 months were randomly divided into 2 groups of 20 babies each. […] Test group II, namely the calcium carbonate group, were administered orally calcium carbonate twice a day in a dosage of one bag each time.
(2) Biochemical examinations of blood. Venous blood of rickets-baby was sampled before and after the beginning of test and serum Ca, P and AKP level were measured and the product of [Ca]×[P] was calculated.
(3) Data processing: All data was statistically analyzed using the method of direct calculation of probability, grouping t-test and pairing t-test.
Considering the difficulty in sampling blood from rickets-babies during the test operation, blood sampling was not performed at the second week after the beginning of the test. Blood sampling was only performed before the test and at the fourth week after the beginning of the test.

In data set [5] the test system is osteoporosis. Particulars: oral administration; Recker et al 1977; cited from earlier work.
In data set [6] the test system is rickets-mice. In words: Preventing rickets in younger mice: serum Ca, AKP, P. It is filed as in vivo, mice of Kunming species. Particulars: 300 mg calcium element, 60 days. As to the method: (§1) The mice were bred for 60 days under conditions of avoiding light around-the-clock, at a temperature of 20-25° C. and a relative humility of 40-60% while the normal-control group mice were fed ordinary diet and water and were placed in non-dark room.
(§2) The low-calcium diet used in this test was the same as that in Test II but VD in the vitamin mixture was replaced by glucose.
(§3) Some weanling mice were placed in dark room and fed VD -deficient low-calcium diet and drunk de-ionized water for 60 days, thus a ricket model of baby mice was prepared. While other weanling mice were placed in non-dark room and fed ordinary diet and drunk tap water for 60 days, these mice were established as normal-control group.

In data set [7] the test system is rickets-mice. In words: Preventing rickets in younger mice: body weight, dry weight, ash weight and total calcium content of femur. The class given is in vivo, mice of Kunming species. Particulars: 300 mg calcium element. As for the experimental part: as §1, §2, §3
Data set [8] relates to rickets-mice. In words: Preventing rickets in younger mice: tibia strength (three-point bending). The class given is in vivo, mice of Kunming species. As to the method:
as §1, §2, §3

[9] abbreviates: 2 bags/day of 150 mg element calcium, 1.5 months.
Setting [10] is: after four weeks of Ca-supplementing.

Where two headings read alike, the source gives them in different places.

With `CC(=O)O` [calcium acetate], in data set [1], the AUC (commonly the area under the concentration-time curve, a measure of exposure) turned out to be 28200 ng·h/mL; the concentration peaked (Cmax) at 24900 ng/mL; the Tmax (usually the time from dosing to the highest level) worked out at 36.6 min.
On to `O=C(O)O` [calcium carbonate], for which the “enhancement of serum Ca level” value in data set [1] (0.25 hrs) is 11.1 µg/mL; in data set [1] (0.5 hrs) it was 24.7 µg/mL; in data set [1] (1 hrs) it was 21.4 µg/mL; in data set [1] (1.5 hrs), 17.1 µg/mL; in data set [1] (2 hrs), 13.2 µg/mL; in data set [1] (3 hrs), 10.9 µg/mL. In addition, the results for the “enhancement of serum Ca level” value in data set [1] (4 hrs), in data set [1] (6 hrs) and in data set [1] (8 hrs) were 5.7 µg/mL, 0.2 µg/mL and -1.4 µg/mL, respectively. In data set [1], the AUC was determined as 40400 ng·h/mL. Besides, the Cmax (commonly the peak of the concentration-time curve) in data set [1] is 31100 ng/mL. For the same compound, the time of peak concentration (Tmax) in data set [1] was 39.6 min. Moreover, the half-life (commonly how long it takes for the measured level to halve) in data set [1] was 20.4 min. Also, the bone mineral density in data set [2] (2 bags/day of 150 mg element calcium, 1.5 month) is reported as 0.385 ± 0.028 g/cm^2; in data set [2] (2 bags/day of 150 mg element calcium, 3 month), 0.412 ± 0.020 g/cm^2. Moreover, the “extent of BMDs' increase” value in data set [2] (setting [9]) is listed as 4.37%; in data set [2] (2 bags/day of 150 mg element calcium, 3 months) it was 11.65%. Moreover, the “percentage of children whose BMDs reached the normal range” value in data set [2] (setting [9]) came to 0%. Besides, in data set [2] (in vivo), the “BMD comparison between groups (in words)” value is “markedly higher than those of the blank-control group only in 3 months”. The total symptom improvement in data set [3] (four weeks) came to 57.6%; in data set [3] (two weeks), 11.5%. Further, the “craniomalacia, babies with symptom after the beginning of test” value in data set [3] (four weeks) amounted to 3; in data set [3] (two weeks), 4. Besides, the “pillow-bald, babies with symptom after the beginning of test” value in data set [3] (four weeks) amounted to 5; in data set [3] (two weeks) it was 9. Moreover, the “night-sweat, babies with symptom after the beginning of test” value in data set [3] (four weeks) is listed as 3; in data set [3] (two weeks) it was 10. For the same compound, the “rickets-babies free of symptoms” value in data set [3] (two weeks of administration (concluding text)) is reported as 50%. The “percentage of babies whose AKP reached the normal range” value in data set [4] (setting [10]) is 30%. For the same compound, the “percentage of babies whose [Ca] × [P] reached the normal range” value in data set [4] (setting [10]) worked out at 70%. Also, the “percentage of babies whose serum P reached the normal range” value in data set [4] (setting [10]) came out at 60%. Moreover, the “serum Ca change (in words)” value in data set [4] (before and after the test, P>0.05) was “no significant variation”. In addition, the “serum P” value in data set [4] (four weeks after, before 3.19 ± 0.25 (threonate), 3.12 ± 0.20 (carbonate)) stood at 3.90 ± 0.52. Further, in data set [4] (four weeks after, before 10.49 ± 0.39 (threonate), 10.51 ± 0.47 (carbonate)), the “serum Ca” value came to 10.55 ± 0.42. The “[Ca] × [P]” value in data set [4] (four weeks after, before 33.4 ± 2.47 (threonate), 33.83 ± 2.17 (carbonate)) amounted to 43.19 ± 5.22. In data set [4] (four weeks after, before 235.95 ± 7.89 (threonate), 235.25 ± 7.37 (carbonate)), this compound yielded an AKP of 225.25 ± 22.93. Moreover, in data set [5], the “effectiveness for preventing osteoporosis” value is “not effective for preventing osteoporosis”.
On to `O=C(O)[C@H](O)[C@@H](O)[C@H](O)[C@H](O)CO` [calcium gluconate, reference compound], for which, in data set [1], the AUC turned out to be 138000 ng·h/mL, the Cmax stood at 32100 ng/mL, the Tmax was determined as 26.4 min and the half-life is 160 min. In addition, the “serum Ca” value in data set [6] (model 1.55 ± 0.42) is 2.37 ± 0.97 mmol/L. Besides, in data set [6] (model 2.23 ± 0.52), the “serum P” value came to 1.71 ± 0.45 mmol/L. In addition, the “serum AKP (in Bessey-Loury unit)” value in data set [6] (model 101 ± 34) amounted to 46.6 ± 13 U/L. The “dry weight of femur” value in data set [7] (model 0.099 ± 0.014) is reported as 0.122 ± 0.019 g. The total calcium content in data set [7] (model 24.81 ± 4.36) is 30.23 ± 5.23 mg. In addition, the ash weight in data set [7] (model 46.62 ± 9.38) amounted to 70.76 ± 10.18 mg. Besides, in data set [8] (300 mg calcium element, model 1.12 ± 0.37), the “breaking force (tibia)” value amounted to 1.54 ± 0.35 kg. The “breaking force of tibia (in words)” value in data set [8] (mouse, in vivo) is “significantly higher than those for the model group and were comparable with those for the normal-control group”.
